Test results from ChEMBL document CHEMBL5247649, “Comparative Efficacy and Selectivity of Pharmacological Inhibitors of DYRK and CLK Protein Kinases” (J Med Chem, 2023).

What was measured:
[1] = target: T1, Dual specificity tyrosine-phosphorylation-regulated kinase 2 (Homo sapiens, UniProt Q92630); experiment: biochemical; type: cell-based, Sf9
T1 sequence (Q92630 whole entry): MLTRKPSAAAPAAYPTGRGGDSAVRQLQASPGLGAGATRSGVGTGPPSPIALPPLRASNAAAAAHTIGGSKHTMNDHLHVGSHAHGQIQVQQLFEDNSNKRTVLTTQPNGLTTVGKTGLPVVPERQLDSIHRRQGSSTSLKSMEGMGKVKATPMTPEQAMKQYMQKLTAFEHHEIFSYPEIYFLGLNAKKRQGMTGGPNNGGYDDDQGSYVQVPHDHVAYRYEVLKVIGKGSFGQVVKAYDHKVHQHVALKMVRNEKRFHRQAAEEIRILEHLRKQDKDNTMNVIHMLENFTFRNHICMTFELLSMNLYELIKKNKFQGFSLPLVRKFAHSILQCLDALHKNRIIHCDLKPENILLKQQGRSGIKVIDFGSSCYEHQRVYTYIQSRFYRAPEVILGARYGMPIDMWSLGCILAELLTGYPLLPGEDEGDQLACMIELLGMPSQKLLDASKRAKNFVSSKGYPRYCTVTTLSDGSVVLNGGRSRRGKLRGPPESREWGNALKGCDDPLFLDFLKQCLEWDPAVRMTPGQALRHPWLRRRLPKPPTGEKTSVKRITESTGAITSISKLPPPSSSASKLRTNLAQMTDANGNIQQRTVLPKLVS

[2] = target: Dual specificity protein kinase CLK2 (Homo sapiens, UniProt P49760); experiment: biochemical
Sequence of Dual specificity protein kinase CLK2 (P49760 whole entry): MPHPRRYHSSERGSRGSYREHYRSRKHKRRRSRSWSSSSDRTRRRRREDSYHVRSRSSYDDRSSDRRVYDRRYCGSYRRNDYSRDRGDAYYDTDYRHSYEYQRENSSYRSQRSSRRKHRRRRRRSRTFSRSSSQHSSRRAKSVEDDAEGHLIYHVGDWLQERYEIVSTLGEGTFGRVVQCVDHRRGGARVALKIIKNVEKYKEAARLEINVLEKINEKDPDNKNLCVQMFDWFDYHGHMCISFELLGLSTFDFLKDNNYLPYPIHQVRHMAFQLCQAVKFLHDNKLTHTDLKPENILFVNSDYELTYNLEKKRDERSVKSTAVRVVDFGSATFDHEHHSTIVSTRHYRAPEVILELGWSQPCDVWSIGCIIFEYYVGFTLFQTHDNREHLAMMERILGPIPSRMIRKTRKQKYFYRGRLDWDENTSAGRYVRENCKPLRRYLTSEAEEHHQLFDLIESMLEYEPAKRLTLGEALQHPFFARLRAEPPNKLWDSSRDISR

[3] = target: T2, Dual specificity protein kinase CLK1 (Homo sapiens, UniProt P49759); experiment: biochemical; type: cell-based, Sf9
T2 sequence (P49759 whole entry): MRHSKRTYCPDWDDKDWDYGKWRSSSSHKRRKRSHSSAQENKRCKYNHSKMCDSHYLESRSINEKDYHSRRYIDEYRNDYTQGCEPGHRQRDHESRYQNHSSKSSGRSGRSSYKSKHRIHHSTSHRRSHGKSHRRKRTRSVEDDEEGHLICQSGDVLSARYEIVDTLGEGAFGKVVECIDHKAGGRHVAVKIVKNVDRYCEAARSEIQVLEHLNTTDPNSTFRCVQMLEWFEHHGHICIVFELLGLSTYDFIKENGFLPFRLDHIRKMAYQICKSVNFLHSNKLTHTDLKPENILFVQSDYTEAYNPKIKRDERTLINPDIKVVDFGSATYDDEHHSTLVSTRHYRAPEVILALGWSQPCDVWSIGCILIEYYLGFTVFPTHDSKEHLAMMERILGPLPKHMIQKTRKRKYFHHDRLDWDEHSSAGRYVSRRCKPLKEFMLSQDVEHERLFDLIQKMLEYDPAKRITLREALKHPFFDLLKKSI

in vitro = conditions: mouse, ht-22
[4] = target: T2, Dual specificity protein kinase CLK1
[5] = target: Casein kinase I isoform epsilon (Homo sapiens, UniProt P49674); experiment: biochemical; type: cell-based, Sf9
Sequence of Casein kinase I isoform epsilon (P49674 whole entry, canonical isoform): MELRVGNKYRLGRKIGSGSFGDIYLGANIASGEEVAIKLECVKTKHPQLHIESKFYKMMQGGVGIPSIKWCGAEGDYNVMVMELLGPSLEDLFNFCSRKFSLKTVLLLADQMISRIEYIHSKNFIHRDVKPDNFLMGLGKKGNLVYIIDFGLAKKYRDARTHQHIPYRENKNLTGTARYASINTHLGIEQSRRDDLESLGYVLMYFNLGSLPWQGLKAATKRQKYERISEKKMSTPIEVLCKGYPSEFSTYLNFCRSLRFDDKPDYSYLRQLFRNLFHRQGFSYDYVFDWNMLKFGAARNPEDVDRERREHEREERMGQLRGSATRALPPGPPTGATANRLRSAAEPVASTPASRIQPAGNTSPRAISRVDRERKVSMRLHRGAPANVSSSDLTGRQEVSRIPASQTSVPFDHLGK

[6] = target: T3, Dual specificity tyrosine-phosphorylation-regulated kinase 3 (Homo sapiens, UniProt O43781); experiment: biochemical; type: cell-based, Sf9
T3 sequence (O43781 whole entry): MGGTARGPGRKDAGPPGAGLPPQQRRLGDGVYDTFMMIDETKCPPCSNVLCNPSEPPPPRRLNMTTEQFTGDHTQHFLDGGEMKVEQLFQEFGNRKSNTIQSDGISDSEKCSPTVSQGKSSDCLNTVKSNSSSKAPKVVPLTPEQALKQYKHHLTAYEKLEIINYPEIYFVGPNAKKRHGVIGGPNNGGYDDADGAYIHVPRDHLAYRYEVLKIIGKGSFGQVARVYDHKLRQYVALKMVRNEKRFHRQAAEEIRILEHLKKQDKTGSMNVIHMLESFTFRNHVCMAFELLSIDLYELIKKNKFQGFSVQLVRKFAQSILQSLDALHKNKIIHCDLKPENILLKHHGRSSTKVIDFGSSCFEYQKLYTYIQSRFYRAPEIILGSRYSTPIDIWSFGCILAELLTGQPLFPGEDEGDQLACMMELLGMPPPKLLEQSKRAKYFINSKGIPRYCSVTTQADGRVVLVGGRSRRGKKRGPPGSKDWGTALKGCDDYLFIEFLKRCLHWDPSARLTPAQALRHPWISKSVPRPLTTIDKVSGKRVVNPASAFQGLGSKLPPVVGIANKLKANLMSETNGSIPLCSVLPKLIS

[7] = target: Dual specificity protein kinase CLK4 (Homo sapiens, UniProt Q9HAZ1); experiment: biochemical
Sequence of Dual specificity protein kinase CLK4 (Q9HAZ1 whole entry): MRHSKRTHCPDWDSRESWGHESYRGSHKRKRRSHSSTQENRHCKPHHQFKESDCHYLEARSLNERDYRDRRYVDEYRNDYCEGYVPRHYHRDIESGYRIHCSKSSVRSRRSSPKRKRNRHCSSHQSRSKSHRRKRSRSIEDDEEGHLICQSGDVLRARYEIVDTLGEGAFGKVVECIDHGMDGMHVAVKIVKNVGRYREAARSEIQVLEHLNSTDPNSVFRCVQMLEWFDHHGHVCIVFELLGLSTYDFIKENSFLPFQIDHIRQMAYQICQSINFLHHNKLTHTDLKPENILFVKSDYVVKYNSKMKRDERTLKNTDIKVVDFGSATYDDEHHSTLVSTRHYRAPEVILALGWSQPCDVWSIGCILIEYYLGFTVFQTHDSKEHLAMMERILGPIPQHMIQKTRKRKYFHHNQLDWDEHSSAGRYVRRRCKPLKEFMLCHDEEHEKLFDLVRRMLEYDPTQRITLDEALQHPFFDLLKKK

[8] = target: T4, Dual specificity tyrosine-phosphorylation-regulated kinase 4 (Homo sapiens, UniProt Q9NR20); experiment: biochemical; type: cell-based, Sf9
T4 sequence (Q9NR20 whole entry): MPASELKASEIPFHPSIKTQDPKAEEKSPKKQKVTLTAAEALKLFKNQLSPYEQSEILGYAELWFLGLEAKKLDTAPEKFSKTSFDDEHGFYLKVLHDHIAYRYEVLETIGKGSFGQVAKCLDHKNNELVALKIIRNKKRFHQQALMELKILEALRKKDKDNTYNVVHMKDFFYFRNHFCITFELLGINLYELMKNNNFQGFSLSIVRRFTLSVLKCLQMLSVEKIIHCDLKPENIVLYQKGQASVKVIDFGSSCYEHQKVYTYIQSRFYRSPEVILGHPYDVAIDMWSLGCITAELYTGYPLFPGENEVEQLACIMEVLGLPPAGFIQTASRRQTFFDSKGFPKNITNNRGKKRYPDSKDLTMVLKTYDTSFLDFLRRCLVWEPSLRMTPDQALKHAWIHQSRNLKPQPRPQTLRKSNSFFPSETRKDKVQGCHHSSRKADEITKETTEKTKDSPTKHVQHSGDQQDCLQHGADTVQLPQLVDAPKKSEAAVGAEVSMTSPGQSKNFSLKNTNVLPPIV

[9] = target: T5, Glycogen synthase kinase-3 beta (Homo sapiens, UniProt P49841)
T5 sequence (P49841 whole entry): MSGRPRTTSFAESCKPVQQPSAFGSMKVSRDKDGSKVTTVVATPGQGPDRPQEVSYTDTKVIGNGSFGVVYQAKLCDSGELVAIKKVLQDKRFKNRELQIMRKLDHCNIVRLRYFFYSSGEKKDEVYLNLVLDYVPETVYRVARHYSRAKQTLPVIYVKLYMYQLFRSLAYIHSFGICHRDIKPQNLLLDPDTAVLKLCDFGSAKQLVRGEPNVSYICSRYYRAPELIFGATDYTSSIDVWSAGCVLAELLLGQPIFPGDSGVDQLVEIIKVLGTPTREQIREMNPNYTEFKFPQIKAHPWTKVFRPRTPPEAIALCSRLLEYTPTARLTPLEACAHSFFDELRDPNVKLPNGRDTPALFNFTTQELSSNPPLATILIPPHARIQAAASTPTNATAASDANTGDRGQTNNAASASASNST

[10] = target: Dual specificity protein kinase CLK3 (Homo sapiens, UniProt P49761); experiment: biochemical; type: cell-based, Sf9
Sequence of Dual specificity protein kinase CLK3 (P49761 whole entry): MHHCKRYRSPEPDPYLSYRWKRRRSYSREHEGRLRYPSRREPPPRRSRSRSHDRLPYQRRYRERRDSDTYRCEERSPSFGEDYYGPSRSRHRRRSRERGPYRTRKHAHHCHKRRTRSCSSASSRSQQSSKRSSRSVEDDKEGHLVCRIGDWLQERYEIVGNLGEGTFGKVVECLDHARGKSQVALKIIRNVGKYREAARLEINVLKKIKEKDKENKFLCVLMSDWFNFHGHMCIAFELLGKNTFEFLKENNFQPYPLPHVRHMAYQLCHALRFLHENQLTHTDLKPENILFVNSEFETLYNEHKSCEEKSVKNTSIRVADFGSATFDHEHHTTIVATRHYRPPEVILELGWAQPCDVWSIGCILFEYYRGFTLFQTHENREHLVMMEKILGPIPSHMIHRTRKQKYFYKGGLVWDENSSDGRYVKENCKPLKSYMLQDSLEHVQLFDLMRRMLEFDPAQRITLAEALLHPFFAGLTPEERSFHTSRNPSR

[11] = target: T5, Glycogen synthase kinase-3 beta; experiment: biochemical; type: cell-based, Sf9
[12] = target: Cyclin-dependent kinase 5/CDK5 activator 1 (Homo sapiens, UniProt Q00535); experiment: biochemical; type: cell-based, Sf9
Sequence of Cyclin-dependent kinase 5/CDK5 activator 1 (Q00535 whole entry): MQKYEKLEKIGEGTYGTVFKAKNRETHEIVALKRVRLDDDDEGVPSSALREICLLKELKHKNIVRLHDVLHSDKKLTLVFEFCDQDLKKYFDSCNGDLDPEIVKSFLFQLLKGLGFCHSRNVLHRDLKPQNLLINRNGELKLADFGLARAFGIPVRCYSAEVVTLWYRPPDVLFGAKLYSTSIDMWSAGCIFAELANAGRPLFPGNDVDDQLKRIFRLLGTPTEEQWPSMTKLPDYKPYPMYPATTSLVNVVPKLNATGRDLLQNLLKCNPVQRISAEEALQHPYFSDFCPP
Sequence of Cyclin-dependent kinase 5/CDK5 activator 1 (Q15078 whole entry, further chain): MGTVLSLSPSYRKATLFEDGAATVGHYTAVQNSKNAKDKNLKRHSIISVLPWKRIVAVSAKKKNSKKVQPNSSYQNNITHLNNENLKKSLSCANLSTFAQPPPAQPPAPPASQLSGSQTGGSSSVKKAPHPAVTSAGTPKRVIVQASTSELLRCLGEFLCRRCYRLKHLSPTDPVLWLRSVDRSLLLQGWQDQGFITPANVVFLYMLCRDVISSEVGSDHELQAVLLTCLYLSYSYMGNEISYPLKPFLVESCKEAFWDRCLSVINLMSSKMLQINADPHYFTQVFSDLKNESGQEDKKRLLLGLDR

[13] = target: T2, Dual specificity protein kinase CLK1; experiment: biochemical; type: cell-based, Sf9; remark: listed apart in the source

Row | SMILES | IC50 [1] [nM] | IC50 [2] [nM] | IC50 [3] [nM] | IC50 at 48 h (in vitro) [nM] | Kd [4] [nM] | IC50 [5] [nM] | IC50 [6] [nM] | IC50 [7] [nM] | IC50 [8] [nM] | Kd [9] [nM] | IC50 [10] [nM] | IC50 [11] [nM] | IC50 [12] [nM] | IC50 ([13]; read-out: IC50) [nM] | IC50 ([13]; sf9)
1 | CN1C(=O)/C(=C/c2ccc3c(c2)OCO3)N=C1N [LEUCETTAMINE B] | 2730 | 3090 | 646 | > 100000 | 36.9 | > 10000 | 4890 | 396 | 6370 | > 10000 | > 10000 | > 10000 | – | – | –
2 | Cc1nc2ccc(-c3cc(N)nc(N)c3)nc2n1C(C)C | 10 | 36.5 | – | 5800 | – | 2900 | > 10000 | 9.5 | 171 | 9590 | 1190 | > 10000 | 273 | – | –
3 | CCN1/C(=C/C(C)=O)Sc2ccc(O)cc21 | 226 | 315 | 44.2 | > 100000 | 1.27 | 2980 | 82.6 | 10.9 | 894 | 1640 | 4790 | 4400 | > 10000 | – | –
4 | COc1ccc2nc3ccc(OC)cc3c(SCCCN)c2c1 | – | 2670 | – | 14500 | – | > 10000 | – | 452 | 584 | 2710 | 7390 | > 10000 | > 10000 | – | –
5 | CCOC(=O)c1c(/C(C#N)=C\N)c2ccc(Cl)c(Cl)c2n1C | > 10000 | – | – | > 100000 | – | > 10000 | > 10000 | 14.8 | > 10000 | > 10000 | – | > 10000 | > 10000 | – | –
6 | CN1Cc2nn(C)c(C#N)c2-c2cnc3[nH]cc(c3c2)-c2cn(nc2C(F)(F)F)CCCC1=O | 8780 | 6710 | – | 51300 | – | > 10000 | > 10000 | – | > 10000 | 7290 | > 10000 | > 10000 | > 10000 | – | –
7 | O=C1NC(Nc2ccccc2)=N/C1=C\c1ccc2c(c1)OCO2 | – | – | – | > 100000 | – | > 10000 | – | 21.5 | 817 | 561 | 2170 | > 10000 | – | – | –
8 | CC(C)CN1CCC(C(=O)Nc2cc3cc(-c4cnn(C)c4)ccc3cn2)CC1 | 215 | 380 | 84 | 4900 | 0.968 | > 10000 | 683 | 23.8 | 2480 | – | 2120 | – | 1030 | 15 | –
9 | CC(C)Oc1ccc(F)c(-c2cnc(N)c(C(=O)Nc3cnccc3N3CCC[C@@H](C(=O)O)C3)n2)c1 | 1580 | 5.9 | 13.7 | 16300 | 0.254 | 630 | 5600 | 21.1 | 7330 | – | 2480 | – | 470 | 28.3 | –
10 | O=C1NC(NC23CC4CC(CC(C4)C2)C3)=N/C1=C\c1ccc2ncsc2c1 | – | – | – | 6300 | – | > 10000 | – | – | 117 | 1760 | 812 | 4160 | 243 | – | –
11 | O=c1c2c(O)cc(O)cc2oc2c(O)ccc(O)c12 [DEMETHYLBELLIDIFOLIN] | 2710 | 1700 | 239 | 2500 | 29.7 | > 10000 | > 10000 | 146 | > 10000 | > 10000 | 7530 | > 10000 | > 10000 | – | –
12 | Cc1ccc(-n2cc(COc3cccc4cnc(Nc5cccc(Cl)c5)nc34)nn2)c([N+](=O)[O-])c1 | – | – | – | 100000 | – | > 10000 | > 10000 | – | > 10000 | > 10000 | – | > 10000 | > 10000 | – | –
13 | CN1Cc2nn(C)c(C#N)c2-c2cnc3[nH]c(F)c(c3c2)-c2cn(nc2C(F)(F)F)CCCC1=O | 1100 | 2500 | – | > 100000 | – | > 10000 | > 10000 | > 10000 | > 10000 | 936 | > 10000 | 3390 | > 10000 | – | Not Active
14 | CN(C)c1nccc(-c2cnn3ncccc23)n1 | 3270 | – | 319 | 58600 | 5.38 | > 10000 | 4450 | 219 | 9590 | > 10000 | 2970 | > 10000 | 9670 | – | –
